Tests used:
human factor XIa = target: T1, human factor XIa (Homo sapiens, UniProt P03951); test: Measurement of FXIa inhibition (fluorogenic peptide substrate Boc-Glu(OBzl)-Ala-Arg-AMC); format: biochemical; settings: factor XIa from Kordia, 15 min preincubation, 30 min at 22° C., fluorescence; some as mean values from multiple determinations
T1 construct: purchased Kordia

human plasma kallikrein = target: T2, human plasma kallikrein (Homo sapiens, UniProt P03952); test: Determination of the plasma kallikrein activity (fluorogenic peptide substrate H-Pro-Phe-Arg-AMC); format: biochemical; settings: plasma kallikrein from Kordia, 15 min preincubation, 30 min at 22° C., fluorescence; some as mean values from multiple determinations
T2 construct: purchased Kordia
T2 sequence (P03952 391-638 limits assumed): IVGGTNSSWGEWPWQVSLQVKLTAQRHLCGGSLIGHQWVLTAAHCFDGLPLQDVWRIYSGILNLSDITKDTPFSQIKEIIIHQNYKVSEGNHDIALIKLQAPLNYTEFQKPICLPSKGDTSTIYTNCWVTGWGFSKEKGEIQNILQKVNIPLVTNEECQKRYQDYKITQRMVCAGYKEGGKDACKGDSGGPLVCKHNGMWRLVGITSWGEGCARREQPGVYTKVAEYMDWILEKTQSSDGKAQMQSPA
T2 sequence (P03952 20-390 partner limits assumed): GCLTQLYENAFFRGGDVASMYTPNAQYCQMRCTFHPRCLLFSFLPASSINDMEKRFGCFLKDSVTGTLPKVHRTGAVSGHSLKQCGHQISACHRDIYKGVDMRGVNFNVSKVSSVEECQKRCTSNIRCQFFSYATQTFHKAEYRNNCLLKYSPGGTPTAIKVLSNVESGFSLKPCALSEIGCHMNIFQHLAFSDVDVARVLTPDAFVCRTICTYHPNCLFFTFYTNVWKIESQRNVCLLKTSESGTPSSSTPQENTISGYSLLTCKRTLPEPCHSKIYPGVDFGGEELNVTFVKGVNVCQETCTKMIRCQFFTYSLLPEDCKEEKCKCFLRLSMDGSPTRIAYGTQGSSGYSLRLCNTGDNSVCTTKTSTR

T1 sequence (P03951 388-625 limits assumed): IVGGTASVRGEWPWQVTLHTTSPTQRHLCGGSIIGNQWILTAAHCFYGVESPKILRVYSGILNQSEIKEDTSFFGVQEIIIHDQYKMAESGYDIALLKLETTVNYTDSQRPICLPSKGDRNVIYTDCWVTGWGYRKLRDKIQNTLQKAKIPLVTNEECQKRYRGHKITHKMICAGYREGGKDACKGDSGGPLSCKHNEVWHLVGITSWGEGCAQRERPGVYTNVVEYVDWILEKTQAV
T1 sequence (P03951 19-387 partner limits assumed): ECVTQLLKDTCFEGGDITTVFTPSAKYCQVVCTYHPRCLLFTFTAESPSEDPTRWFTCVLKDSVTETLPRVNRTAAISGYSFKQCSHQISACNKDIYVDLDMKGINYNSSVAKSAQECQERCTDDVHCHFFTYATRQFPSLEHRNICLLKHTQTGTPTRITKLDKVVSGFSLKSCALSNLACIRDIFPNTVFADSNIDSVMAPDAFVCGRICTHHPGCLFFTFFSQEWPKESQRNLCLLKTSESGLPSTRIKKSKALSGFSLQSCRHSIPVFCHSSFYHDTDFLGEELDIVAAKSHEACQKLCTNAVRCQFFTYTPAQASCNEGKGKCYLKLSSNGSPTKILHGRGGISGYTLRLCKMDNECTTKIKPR

Compound: CO[C@@H](C)C[C@@H](C(=O)Nc1ccc(C(N)=O)cc1)n1cc2c(cc1=O)-c1c(ccc(Cl)c1Cl)C[C@@H](C(F)(F)F)OC2 (single isomer, unassigned) [Example 80]
- IC50 (human factor XIa): 9.5 nM
- IC50 (human plasma kallikrein): 280 nM

From patent US20220144848A1, “SUBSTITUTED OXOPYRIDINE DERIVATIVES” (Bayer Aktiengesellschaft, priority 2018, published 2022)
